# Article PMC8802806, “Synthesis and Antitumor Activity of Erlotinib Derivatives Linked With 1,2,3-Triazole” (Frontiers in Pharmacology, 2022)
# Where “and” joins values, the source holds several entries; their conditions need not be identical. Equal entries are not always repeated. Where two headings read alike, the source gives them in different places.
# How the values were obtained:
# HeLa cells [1] = assay: Cell antiproliferative activity assay (CCK8); type: cell-based, human; conditions: for inhibition at 0.25 µM: 250 nM; for inhibition at 0.5 µM: 500 nM; for inhibition at 1 µM: 1000 nM; for inhibition at 2 µM: 2000 nM; for inhibition at 4 µM: 4000 nM; for inhibition at 8 µM: 8000 nM; for inhibition at 16 µM: 16000 nM
# Procedure: Cell antiproliferative activity was evaluated by the Cell Counting Kit-8 (CCK8, DOJINDO, Japan) assay. The cells were seeded at a density of 2,000 cells per well into 96-well microplate in 100 μl of growth medium. Cells were incubated at 37°C and 5% CO2 overnight. The next day, 100 μl per well of diluted inhibitor in growth medium was added with the final concentration from 0.1 nM to 100 μM. The cells were treated with DMSO as control. A series of dilutions are made in 0.1% DMSO in assay medium so that the final concentration of DMSO is 0.1% in all of treatments. Cells were incubated at 37°C and 5% CO2 for 48 h. Then, 10 μl of CCK8 was added to each well. The plates were incubated at 37°C for 2 h; after that, the plates were recorded by measuring absorbance at 450 nm with the reference wavelength of 630 nm using an EnVision Multilabel Reader (PerkinElmer). The IC50 values were calculated using GraphPad Prism 6.0 software and determined by the concentration causing a half-maximal percent activity. All assays were conducted with three parallel samples and three repetitions.
# HeLa cells [2] = assay: Flow cytometry detection for cell apoptosis (Annexin V/PI); type: cell-based, human; conditions: for Q1 (flow cytometry quadrant, Figure 4A) / Q4 (flow cytometry quadrant, Figure 4A) / Q2: FITC-A+ , PE-A+ Freq. of Parent / Q3: FITC-A+ , PE-A- Freq. of Parent: Annexin V/PI; for Q2: FITC-A+ , PE-A+ Freq. of Parent / Q3: FITC-A+ , PE-A- Freq. of Parent / Q2+Q3 (column without head, sum on percent scale): single samples
# Procedure: Cell-apoptosis analysis was carried out by flow cytometry using the Annexin V/PI apoptosis kit (Solarbio, China) according to the manufacturer’s manual. Briefly, HeLa (5 × 10^4/well) cells were seeded in 12-well plates for 24 h and then treated with 0.1% DMSO (as control) or various concentrations of compounds 4d, 4k, and 4l for 72 h, respectively. Cells were harvested, washed with PBS, and then incubated with 100 μl of 1 × Annexin V binding buffer containing 1 μl FITC Annexin V for 10 min at RT in the dark. Cells were incubated for another 5 min at room temperature (RT) in the dark after 1 μl PI was added. PBS (200 µl) was added to each tube for flow cytometry analysis (BriCyte E6). The percentages of apoptotic cells were analyzed using FlowJo soft.
# HeLa cells [3] = assay: Colony formation assay; type: cell-based, human
# Procedure: HeLa cells were seeded in six-well plates at the density of 500/well for 24 h, and then treated with 0.1% DMSO (as control), various concentrations of compounds 4d, 4k, and 4l, respectively. The cells were incubated for 2 weeks in a 5% CO2 environment at 37°C for colony formation. The media was gently removed from each of the plates, and then each plate was washed with PBS twice. The colonies were fixed with 4% polyformaldehyde for 10 min and then wash the cells with ddH2O twice. Stain with 1 ml Crystal Violet Staining Solution (Beyotime, China) for 10 min. Wash excess crystal violet with ddH2O and allow dishes to dry. Take pictures of the plate and count the colonies.
# [4] = Homo sapiens, HELA 2000cells/well, Repeat1, read-out: Inhibition (%) Repeat1
# [5] = Homo sapiens, HELA 2000cells/well, Repeat2, read-out: Inhibition (%) Repeat2
structure (smiles),measurement,setting,value
"COCCOc1cc2ncnc(Nc3cccc(-c4cn(-c5ccc(C)cc5)nn4)c3)c2cc1OCCOC [Compound 4l, [6,7-Bis-(2-methoxy-ethoxy)-quinazolin-4-yl]-[3-(1-p-tolyl-1H-[1,2,3]triazol-4-yl)-phenyl]-amine]",IC50,"HeLa cells [1]; HeLa cells, CCK8, 48 h, mean ± SD, n = 3, read-out: IC50 (μM) HeLa",4.51 ± 0.08 µM
same,IC50,"HeLa cells [1]; Homo sapiens, HeLa, 48 h, HeLa cells, CCK8, 48 h, mean ± SD, n = 3, read-out: IC50 (μM) HeLa",4.36 µM
same,IC50,"HeLa cells [1]; Homo sapiens, HeLa, HELA 2000cells/well, supplement DataSheet2, Repeat1, read-out: IC50 Repeat1",4.41 µM
same,IC50,"HeLa cells [1]; Homo sapiens, HeLa, HELA 2000cells/well, supplement DataSheet2, Repeat 2, read-out: IC50 Repeat 2",4.58 µM
same,IC50,"HeLa cells [1]; Homo sapiens, HeLa, HELA 2000cells/well, supplement DataSheet2, mean of two repeats ± SD, read-out: IC50 mean±SD",4.51 ± 0.083 µM
same,inhibition at 0.25 µM,HeLa cells [1]; [4],2.96%
same,inhibition at 0.25 µM,HeLa cells [1]; [5],0%
same,inhibition at 0.5 µM,HeLa cells [1]; [4],5.57%
same,inhibition at 0.5 µM,HeLa cells [1]; [5],0.522%
same,inhibition at 1 µM,HeLa cells [1]; [4],8.62%
same,inhibition at 1 µM,HeLa cells [1]; [5],4.7%
same,inhibition at 2 µM,HeLa cells [1]; [4],12.6%
same,inhibition at 2 µM,HeLa cells [1]; [5],6.88%
same,inhibition at 4 µM,HeLa cells [1]; [4],37.2%
same,inhibition at 4 µM,HeLa cells [1]; [5],32%
same,inhibition at 8 µM,HeLa cells [1]; [4],96.7%
same,inhibition at 8 µM,HeLa cells [1]; [5],96.9%
same,inhibition at 16 µM,HeLa cells [1]; [4],99%
same,inhibition at 16 µM,HeLa cells [1]; [5],98.9%
same,"Q1 (flow cytometry quadrant, Figure 4A)","HeLa cells [2]; 3 μM, 72 h",3.78%
same,"Q4 (flow cytometry quadrant, Figure 4A)","HeLa cells [2]; 3 μM, 72 h",84.8%
same,"Q2: FITC-A+ , PE-A+ Freq. of Parent","HeLa cells [2]; 3 μM, 72 h",9.69%
same,"Q3: FITC-A+ , PE-A- Freq. of Parent","HeLa cells [2]; 3 μM, 72 h",1.71%
same,"Q2: FITC-A+ , PE-A+ Freq. of Parent","HeLa cells [2]; 3 μM, 72 h, listed as e12",9.69% and 6.86% and 8.36%
same,"Q3: FITC-A+ , PE-A- Freq. of Parent","HeLa cells [2]; 3 μM, 72 h, listed as e12",1.71% and 1.25% and 0.95%
same,"Q2+Q3 (column without head, sum on percent scale)","HeLa cells [2]; 3 μM, listed as e12",11.4 and 8.11 and 9.31
same,"Q1 (flow cytometry quadrant, Figure 4A)","HeLa cells [2]; 6 μM, 72 h",3.76%
same,"Q4 (flow cytometry quadrant, Figure 4A)","HeLa cells [2]; 6 μM, 72 h",83.5%
same,"Q2: FITC-A+ , PE-A+ Freq. of Parent","HeLa cells [2]; 6 μM, 72 h",11.1%
same,"Q3: FITC-A+ , PE-A- Freq. of Parent","HeLa cells [2]; 6 μM, 72 h",1.72%
same,"Q2: FITC-A+ , PE-A+ Freq. of Parent","HeLa cells [2]; 6 μM, 72 h, listed as e12",8.62% and 11.1% and 7.43%
same,"Q3: FITC-A+ , PE-A- Freq. of Parent","HeLa cells [2]; 6 μM, 72 h, listed as e12",1.73% and 1.72% and 1.32%
same,"Q2+Q3 (column without head, sum on percent scale)","HeLa cells [2]; 6 μM, listed as e12",10.35 and 12.82 and 8.75
same,"Q1 (flow cytometry quadrant, Figure 4A)","HeLa cells [2]; 12 μM, 72 h",4.50%
same,"Q4 (flow cytometry quadrant, Figure 4A)","HeLa cells [2]; 12 μM, 72 h",78.5%
same,"Q2: FITC-A+ , PE-A+ Freq. of Parent","HeLa cells [2]; 12 μM, 72 h",14.1%
same,"Q3: FITC-A+ , PE-A- Freq. of Parent","HeLa cells [2]; 12 μM, 72 h",2.91%
same,"Q2: FITC-A+ , PE-A+ Freq. of Parent","HeLa cells [2]; 12 μM, 72 h, listed as e12",14.8% and 14.1% and 12.5%
same,"Q3: FITC-A+ , PE-A- Freq. of Parent","HeLa cells [2]; 12 μM, 72 h, listed as e12",2.43% and 2.91% and 2.33%
same,"cell apoptosis in HeLa cells, percentage","HeLa cells [2]; 12 μM, 72 h, three independent experiments",16.36%
same,"Q2+Q3 (column without head, sum on percent scale)","HeLa cells [2]; 12 μM, listed as e12",17.23 and 17.01 and 14.83
same,melting point,,95 to 98 °C
same,Number of Colonies /well,"HeLa cells [3]; 6 uM, repeats 1-3",291 and 246 and 217
same,effect on cell colony formation,"HeLa cells [3]; 12 μM, 2 weeks",entirely inhibited
